Columns and labels:
[1] = intravenous, over 9 weeks, cited from earlier work
[2] = intravenous; cited from earlier work
[3] = Clinical Trial 1: 22-week randomized, double-blind, placebo-controlled study with dose titration; assay type: in vivo
Protocol: A 22-week randomized, double-blind, placebo-controlled study with a dose titration period of up to 9 weeks was conducted. Sixty-one individuals were randomized 2:1 Compound 1 to placebo. Right Heart Catheterization (RHC) measurements were obtained prior to study Day 1 of the dose titration period and at Week 22. The following values were obtained and recorded: pulmonary artery pressure (PAP) (systolic, diastolic, and mean), heart rate (HR), right atrial pressure (RAP), pulmonary capillary wedge pressure (PCWP) right ventricular pressure (RVP) and cardiac output (CO), pulmonary vascular resistance (PVR), arterial and mixed venous oxygen saturation […] (if applicable). Systemic vascular resistance (SVR) was estimated from blood pressure measurements.
Primary efficacy endpoints for the study were: a) change from baseline in PVR after 22 weeks of treatment, and b) change from baseline in 6 MWD after 22 weeks of treatment. Compound 1 was administered as a capsule in 0.01, 0.02, 0.03, 0.04, and 0.10 mg dose strengths. The starting dose of Compound 1 was 0.01 mg twice daily. The dose of Compound 1 was titrated according to individual tolerability. If the initial dose was tolerated (0.01 mg twice daily), then the dose was increased once a week in the following fashion: 0.02 mg twice daily, 0.03 mg twice daily, 0.04 mg twice daily, 0.06 mg twice daily, 0.08 mg, 0.1 mg twice daily, 0.2 mg twice daily and 0.3 mg twice daily. The dose was optionally escalated to a possible maximum total daily dose of 0.6 mg (0.3 mg twice daily), pending tolerability.

[4] = Clinical Trial 2: randomized, double-blind, placebo-controlled study in individuals with severe Raynaud's; assay type: in vivo; details: titration scheme
Protocol: A randomized, double-blind, placebo-controlled study is conducted in individuals with severe Raynaud's. Individuals are administered Compound 1 using a titration scheme. Compound 1 is determined to be efficacious for the treatment and/or prevention of Raynaud's.

[5] = oral, titrated to the highest tolerated dose; individuals with systemic sclerosis; cited from earlier work
[6] = after 22 weeks of treatment, capsule, titrated from 0.01 mg twice daily up to 0.3 mg twice daily

In the case of `CC#CCC(C)[C@H](O)/C=C/[C@@H]1[C@H]2C/C(=C/CCCC(=O)O)C[C@H]2C[C@H]1O` (stereo partly drawn) [iloprost], the improve severity score ([1]; vs. 19.7% comparator) is given as 34.8% and the “reduce weekly Raynaud phenomenon attacks” value ([1]; vs. 22.2% comparator) is given as 39.1%.
For `CCCCC[C@H](O)/C=C/[C@@H]1[C@H]2C/C(=C/CCCC(=O)O)O[C@H]2C[C@H]1O` [epoprostenol], the “frequency and duration of Raynaud phenomenon attacks” value [2] is given as “reduced frequency and duration” and the “loss in clinical response, time after the last infusion” value [2] is given as 8-10 weeks.
With `O=C(O)COC[C@H]1CC[C@H](COC(=O)N(c2ccccc2)c2ccc(Cl)cc2)CC1` [Compound 1, 2-(((1r,4r)-4-(((4-chlorophenyl)(phenyl)carbamoyloxy)methyl)cyclohexyl)methoxy)acetic acid] the “adverse events observed in the study” value ([3]; 22-week study, titrated up to 0.6 mg total daily dose) was “consistent with other prostacyclin treatments for the management of PAH”, the “6-minute walk distance (6MWD)” value [3, 6] was “numerical improvement” and the “change from baseline in pulmonary vascular resistance (PVR) compared to placebo (primary endpoint)” value [3, 6] was “statistically significant change from baseline”. The “efficacy for the treatment and/or prevention of Raynaud's” value [4] was “efficacious”.
In the case of `CC(C)N(CCCCOCC(=O)NS(C)(=O)=O)c1cnc(-c2ccccc2)c(-c2ccccc2)n1` [selexipag], the “primary efficacy endpoint: reduction in the number of Raynaud's phenomenon attacks per week versus placebo” value [5] is given as “did not meet the primary efficacy endpoint”.

From US20200368190A1, “METHODS OF TREATMENT” (Arena Pharmaceuticals, Inc., priority 2017, published 2020)
